Experimental findings from article PMC4714869 (Steroids, 2015) are described below.

Entries after “also recorded” stand apart in the source; their conditions may differ.

The target in one assay is T1, human ERα (Homo sapiens, UniProt P03372).
T1 sequence (P03372 1-595): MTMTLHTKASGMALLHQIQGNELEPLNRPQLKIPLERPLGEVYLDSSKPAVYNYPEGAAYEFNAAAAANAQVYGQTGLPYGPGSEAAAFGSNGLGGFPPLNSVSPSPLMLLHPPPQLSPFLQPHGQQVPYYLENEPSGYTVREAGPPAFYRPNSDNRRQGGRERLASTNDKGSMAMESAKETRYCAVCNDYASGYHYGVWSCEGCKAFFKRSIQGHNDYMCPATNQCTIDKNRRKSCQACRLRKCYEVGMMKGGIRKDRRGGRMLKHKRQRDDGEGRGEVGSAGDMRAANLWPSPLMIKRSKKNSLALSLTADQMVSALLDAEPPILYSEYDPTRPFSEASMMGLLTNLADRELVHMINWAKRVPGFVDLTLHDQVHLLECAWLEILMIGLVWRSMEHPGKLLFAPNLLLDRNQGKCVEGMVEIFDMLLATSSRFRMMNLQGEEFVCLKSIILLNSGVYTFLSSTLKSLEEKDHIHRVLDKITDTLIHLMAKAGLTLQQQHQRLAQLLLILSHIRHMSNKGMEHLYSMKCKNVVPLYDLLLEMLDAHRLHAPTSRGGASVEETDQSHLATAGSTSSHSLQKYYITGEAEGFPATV
Description: Competitive radiometric binding assay with [3H]-estradiol tracer, ERα. The settings on record: RBA of estradiol set to 100%; 2 nM [3H]-estradiol, 18–24 h at 0 °C.

Assay [1] has as its system PgR and GREB1 gene expression in MCF-7 cells. Description: Estrogen-responsive gene expression. The assay is classed as cell-based. The settings on record: for PgR and GREB1 RNA level (gene stimulation): MCF-7, 10^−8 M E2, 10^−6 M Liq or Iso-Liq, 3×10^−6 M L1–L7, 24 h.
In another assay the test system is MCF-7 cells. Description: Proliferation of MCF-7 cells. The assay is classed as cell-based. The conditions noted are these: 6 days; two highest concentrations 10^−6 and 3×10^−6 M.
For assay [2], the system named is E2-stimulated PgR and GREB1 gene expression in MCF-7 cells. Description: Inhibition of E2-stimulated PgR and GREB1 gene expression in MCF-7 cells. The settings on record: 3×10^−6 M component with 10^−9 M E2, 24 h.
Assay [3] relates to Ki67 gene expression in MCF-7 cells. The assay is described as follows: Ki67 gene expression in MCF-7 cells by qPCR. The settings on record: for suppression of E2-elicited increase in Ki67 mRNA: 3×10^−6 M component with 10^−9 M E2, 24 h; for Ki67 RNA expression (stimulation): 10^−8 M E2, 10^−6 M Liq or Iso-Liq, 3×10^−6 M L1–L7, 24 h. For orientation: In qPCR the cycle at which signal appears reflects the starting amount.

The target of the next assay is human ERβ (Homo sapiens, UniProt Q92731). The settings on record: for RBA (mean ± SD) ERβ: RBA of estradiol set to 100%, 2 nM [3H]-estradiol, 18–24 h at 0 °C.
Assay [4] relates to proteinase inhibitor 9 (PI9) expression in HepG2 + ERα cells. Description: PI9 gene expression in HepG2 cells stably expressing ERα. The conditions noted are these: 10^−8 M EE2; 3×10^−6 M Liq, Iso-Liq, L1–L7; 24 h.

human ERβ, sequence (Q92731 whole entry): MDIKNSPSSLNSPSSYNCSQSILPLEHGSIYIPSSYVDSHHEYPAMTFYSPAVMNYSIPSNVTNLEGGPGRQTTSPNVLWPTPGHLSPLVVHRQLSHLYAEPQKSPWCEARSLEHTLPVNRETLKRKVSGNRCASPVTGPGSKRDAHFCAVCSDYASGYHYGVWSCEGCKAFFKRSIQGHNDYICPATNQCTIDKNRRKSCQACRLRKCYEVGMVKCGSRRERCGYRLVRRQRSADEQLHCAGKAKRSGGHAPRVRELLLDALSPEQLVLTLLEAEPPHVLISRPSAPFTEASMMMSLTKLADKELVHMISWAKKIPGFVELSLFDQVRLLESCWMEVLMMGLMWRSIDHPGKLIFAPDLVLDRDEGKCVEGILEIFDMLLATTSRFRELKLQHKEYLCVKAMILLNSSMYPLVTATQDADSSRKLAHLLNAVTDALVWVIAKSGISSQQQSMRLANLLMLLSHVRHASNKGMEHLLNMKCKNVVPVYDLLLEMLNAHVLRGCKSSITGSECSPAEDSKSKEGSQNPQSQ

`CC1(C)C=Cc2c(ccc3c2OC[C@@H](c2ccc(O)cc2O)C3)O1` [L1, Glabridin]: the “RBA (mean ± SD) ERα” value at human ERα came to 0.075 ± 0.015%. Further, the “PgR and GREB1 RNA level (gene stimulation)” value (shortened to “PgR and GREB1 RNA level”) in assay [1] is “little or no change in gene expression; also recorded: did not stimulate expression of PgR or GREB1”. In addition, the “stimulation of MCF-7 cell proliferation” value in the assay with MCF-7 cells was “inactive in eliciting elevation of cell proliferation”. Further, in assay [2], the “block of E2-stimulated GREB1 expression” value is “only partially” and the “block of E2-stimulated PgR expression” value was “almost fully”. Further, in assay [3], the “suppression of E2-elicited increase in Ki67 mRNA” value is “not effective in suppressing” and the “Ki67 RNA expression (stimulation)” value is “did not stimulate Ki67 gene expression”. At human ERβ, the “ERβ/ERα ratio of RBA” value was 1.2 and the “RBA (mean ± SD) ERβ” value was 0.091 ± 0.001%.

As to `C[C@]12CC[C@@H]3c4ccc(O)cc4CC[C@H]3[C@@H]1CC[C@@H]2O` [E2, estradiol, reference compound], the “PgR and GREB1 RNA level” value in assay [1] is listed as “markedly increased”.

In the case of `COc1c(CC=C(C)C)c(O)cc2c1C[C@H](c1ccc(O)cc1O)CO2` [L5, Glyasperin C], the “RBA (mean ± SD) ERα” value on human ERα is reported as 0.010 ± 0.001%. Moreover, the “PgR and GREB1 RNA level” value in assay [1] is “little or no change in gene expression; also recorded: did not stimulate expression of PgR or GREB1”. Moreover, the “stimulation of MCF-7 cell proliferation” value in the assay with MCF-7 cells is “inactive in eliciting elevation of cell proliferation”. Also, in assay [2], the “block of E2-stimulated GREB1 expression” value is recorded as “only partially” and the “block of E2-stimulated PgR expression” value is recorded as “almost fully”. In assay [3], the “suppression of E2-elicited increase in Ki67 mRNA” value was “not effective in suppressing” and the “Ki67 RNA expression (stimulation)” value is given as “did not stimulate Ki67 gene expression”. Besides, at human ERβ, the “ERβ/ERα ratio of RBA” value was 11.1 and the “RBA (mean ± SD) ERβ” value is given as 0.111 ± 0.004%. For the same compound, the “preference for ERβ over ERα” value at human ERβ (from RBA values) is “greater than 10 fold”.

Regarding `C#C[C@]1(O)CC[C@H]2[C@@H]3CCc4cc(O)ccc4[C@H]3CC[C@@]21C` [EE2, ethinyl estradiol], the “PI9 expression in HepG2 + ERα cells” value in assay [4] is reported as “stimulated expression”.

With `O=C1C[C@@H](c2ccc(O)cc2)Oc2cc(O)ccc21` [Liq, Liquiritigenin, reference compound], on human ERα, the “RBA (mean ± SD) ERα” value was less than 0.001%. Besides, the “PI9 expression in HepG2 + ERα cells” value in assay [4] is “stimulated expression”. The “PgR and GREB1 RNA level” value in assay [1] is given as “markedly increased”. For the same compound, the “stimulation of MCF-7 cell proliferation” value with MCF-7 cells is on record as “stimulated cell proliferation quite strongly”.

Consider `COc1ccc(C2COc3cc(O)ccc3C2)c(O)c1` (centres unmarked) [L4, Vestitol], for which the “RBA (mean ± SD) ERα” value on human ERα was determined as 0.062 ± 0.008%. Further, the “PgR and GREB1 RNA level” value in assay [1] is “effective in increasing PgR and GREB1 expression”. The “potency in stimulating estrogen-regulated genes, fold less than E2” value in assay [1] (efficacy nearly equivalent to E2) is given as “ca. 10,000 fold”. Moreover, the “stimulation of MCF-7 cell proliferation” value in the assay on MCF-7 cells is on record as “stimulated cell proliferation quite strongly”. Moreover, on human ERβ, the “ERβ/ERα ratio of RBA” value is reported as 0.6 and the “RBA (mean ± SD) ERβ” value is 0.039 ± 0.011%.

`O=C(/C=C/c1ccc(O)cc1)c1ccc(O)cc1O` [Iso-Liq, Iso-liquiritigenin, reference compound]: in assay [4], the “PI9 expression in HepG2 + ERα cells” value is recorded as “stimulated expression”. The “PgR and GREB1 RNA level” value in assay [1] was “markedly increased”. Besides, the “stimulation of MCF-7 cell proliferation” value in the assay on MCF-7 cells is recorded as “stimulated cell proliferation quite strongly”.

On to `C[C@]12CC[C@@H]3c4ccc(O)cc4C[C@@H](CCCCCCCCC[S+]([O-])CCCC(F)(F)C(F)(F)F)[C@H]3[C@@H]1CC[C@@H]2O` (some centres unmarked) [ICI 182,780, reference compound], for which, in assay [3] (10^−6 M ICI 182,780, 24 h), the “effect of antiestrogen cotreatment on increases in Ki67 RNA expression” value is given as “eliminated”.

As to `COc1c(CC=C(C)C)c(O)cc(O)c1-c1coc2cc(O)ccc2c1=O` [L7, Glicoricone], on human ERα, the “RBA (mean ± SD) ERα” value was determined as 0.008 ± 0.001%. In addition, in assay [1], the “PgR and GREB1 RNA level” value was “little or no change in gene expression; also recorded: did not stimulate expression of PgR or GREB1”. Also, the “stimulation of MCF-7 cell proliferation” value in the assay with MCF-7 cells is “inactive in eliciting elevation of cell proliferation”. In assay [2], the “block of E2-stimulated GREB1 expression” value is “only partially; also recorded: most effective antagonist of GREB1 stimulation by E2” and the “block of E2-stimulated PgR expression” value is “almost fully”. For the same compound, in assay [3], the “suppression of E2-elicited increase in Ki67 mRNA” value is listed as “partially suppressed” and the “Ki67 RNA expression (stimulation)” value is “did not stimulate Ki67 expression”. Besides, at human ERβ, the “ERβ/ERα ratio of RBA” value was 2.4 and the “RBA (mean ± SD) ERβ” value was 0.019 ± 0.004%.

`COc1c(CC=C(C)C)c(O)cc2oc(=O)c(-c3ccc(O)cc3O)cc12` [L6, Glycycoumarin]: the “RBA (mean ± SD) ERα” value at human ERα came to 0.017 ± 0.001%. Besides, in assay [1], the “PgR and GREB1 RNA level” value was “effective in increasing PgR and GREB1 expression”. In assay [3], the “Ki67 RNA expression (stimulation)” value is “all compounds except for L1, L5, L6 and L7 increased Ki67 RNA expression”. For the same compound, on human ERβ, the “ERβ/ERα ratio of RBA” value stood at 2.4 and the “RBA (mean ± SD) ERβ” value is listed as 0.040 ± 0.001%.

Take `COc1ccc(-c2coc3cc(O)ccc3c2=O)cc1O` [L2, Calycosin]: the “RBA (mean ± SD) ERα” value on human ERα amounted to 0.010 ± 0.004%. The “PgR and GREB1 RNA level” value in assay [1] was “effective in increasing PgR and GREB1 expression”. Also, on human ERβ, the “ERβ/ERα ratio of RBA” value turned out to be 2.7 and the “RBA (mean ± SD) ERβ” value is on record as 0.027 ± 0.004%.
